In US20250101038A1, “COMPOUNDS” (priority 2021, published 2025):
Several values for one entry are separate records, joined by “and”; a condition that tells them apart may be missing. Equal entries are not always repeated. Where two headings read alike, the source gives them in different places.

Key:
[1] = molecular target: T1, 5-HT2A receptor (Homo sapiens, UniProt P28223); experiment: FLIPR Ca2+ flux functional assay, 5-HT2A; format: cell-based; details: agonist activity, Ca2+ flux, HEK293 cells
T1 construct: host or cells: HEK293

[2] = molecular target: T2, 5-HT2C receptor (Homo sapiens, UniProt P28335); experiment: cell-based; details: agonist activity, Ca2+ flux, HEK293 cells
T2 construct: host or cells: HEK293
T2 sequence (P28335 33-458): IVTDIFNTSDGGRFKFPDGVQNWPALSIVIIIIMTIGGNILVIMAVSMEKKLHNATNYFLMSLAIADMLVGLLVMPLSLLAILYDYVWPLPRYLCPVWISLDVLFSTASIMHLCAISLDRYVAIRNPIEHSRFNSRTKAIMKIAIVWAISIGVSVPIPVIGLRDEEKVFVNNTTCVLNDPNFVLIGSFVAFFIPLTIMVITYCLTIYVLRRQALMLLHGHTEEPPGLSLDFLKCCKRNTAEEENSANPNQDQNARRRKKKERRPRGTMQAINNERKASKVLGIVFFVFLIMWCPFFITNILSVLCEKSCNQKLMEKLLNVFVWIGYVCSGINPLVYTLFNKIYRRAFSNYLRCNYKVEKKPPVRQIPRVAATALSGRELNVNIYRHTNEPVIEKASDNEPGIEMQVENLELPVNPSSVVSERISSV

[3] = molecular target: T3, 5-HT2B receptor (Homo sapiens, UniProt P41595); experiment: cell-based; details: agonist activity, Ca2+ flux, CHO-K1 cells
T3 construct: host or cells: CHO-K1

[4] = In vivo pharmacokinetics, plasma and brain exposure after IP dosing; parameters: species or system male C57BL/6 mice; details: for B:P Ratio, Individual / Plasma Concentration, Individual / concentration at 0.5 h / concentration at 0.083 h / concentration at 4 h / Kp at 0.083 h / Kp at 0.5 h / Kp at 4 h: 10 mg/kg; for Kp at 0.083 h / Kp at 0.5 h / Kp at 4 h: brain/plasma; for Cmax / Tmax / AUC(0-inf) / half-life: mouse, male C57BL/6 mice; for AUC(0-inf): read-out: Plasma AUC0-inf; for half-life: read-out: Apparent T1/2 (converted)
Procedure: The systemic exposure of selected examples was studied in non-fasted male C57BL/6 mice weighing between 18.9-25.5 g. Mice had access to food and water ad libitum throughout the pre- and post-dose sampling period.
On the day of dosing, the formulation of each compound was prepared by dissolving solid compound in phosphate buffer saline (50 mM) using vortexing, creating colourless solutions (pH 6.4-6.5) for each compound.
Compounds were dosed to mice by IP injection (10 mL/kg dose volume via a 27G needle; n=9 mice per compound) and blood samples were collected at 5 and 30 min; 1, 2 and 4 h post-dose (n=3 mice per time point for each compound). A maximum of three blood samples were obtained from each mouse, with plasma samples being taken via submandibular bleed (approximately 120 μL). Once collected, blood samples were centrifuged immediately, supernatant plasma was removed, and stored at −80° C. until analysis by LCMS. In addition, at the 5 and 30 min and 4 h post-dose time points, the whole brain was rapidly removed from the carcass soon after the blood collection. The whole brains were blotted to remove excess blood, placed into pre-weighed polypropylene vials, and weighed. The brains were snap frozen in dry ice and subsequently stored frozen (−80° C.) until analysis.
Concentrations of test compound in plasma and tissue samples were determined using an LCMS/MS method validated for linearity, accuracy, precision, matrix factor and recovery (Table 2). Test compound standard solutions were diluted from a concentrated stock solution (32 mM in H2O) using 50% can in H2O (v/v) and a calibration curve was prepared in a matched matrix to the test samples.
Plasma: The plasma calibration curve was prepared by spiking aliquots of blank mouse plasma (25 μL) with test compound standard solutions (5 μL) and internal standard solution (5 μL of diazepam, 5 μg/mL in 50% acetonitrile in water). Test plasma samples (25 μL) were thawed, mixed, and then spiked with internal standard solution (5 μL). Plasma protein precipitation was performed by addition of acetonitrile (3-fold volume ratio) and thorough vortex mixing. Samples were centrifuged (RCF=9391×g) for 3 minutes and the supernatant (90 μL) was collected for analysis.
Tissue: Pre-weighed tissue samples (brain) were homogenised using a glass rod in buffer containing an EDTA/potassium fluoride solution (0.1 M/4 mg/mL) as a stabilisation cocktail to minimise the potential for ex vivo degradation (3 mL cocktail/g tissue). The tissue homogenate was briefly centrifuged (RCF=79×g) for 10 seconds to separate the foam layer before transferring an aliquot of the tissue homogenate (200 μL) to a fresh Eppendorf tube for sample extraction. Calibration standards were prepared by spiking blank brain homogenate (200 μL) with the solution standards (10 μL) and the internal standard (10 μL). Study samples were similarly prepared, except that acetonitrile (10 μL) was added instead of solution standards to maintain the same volume. Protein precipitation was carried out by the addition of a 3-fold volume of acetonitrile, followed by vortex mixing and centrifugation (RCF=9391×g) for 3 min to recover the supernatant for analysis.
Replicate analysis: Triplicate analytical replicate (ARs) samples were prepared similarly to the standards for each sample type at three concentrations (50, 500 and 2,000 ng/ml) and repeat injections of these ARs were included throughout the analytical run to assess assay performance. The extraction of the test compound from the standards and ARs were conducted as described above.

[5] = 0.083 h, IP 10 mg/kg, individual mouse
[6] = 0.083 h, IP 10 mg/kg, individual mouse, read-out: Brain Parenchyma Concentration, Individual
[7] = 0.5 h, IP 10 mg/kg, individual mouse
[8] = 0.5 h, IP 10 mg/kg, individual mouse, read-out: Brain Parenchyma Concentration, Individual
[9] = 4 h, IP 10 mg/kg, individual mouse
[10] = 4 h, IP 10 mg/kg, individual mouse, read-out: Brain Parenchyma Concentration, Individual
[11] = male, C57BL/6, mouse, brain, ip, 0.083 h, n = 3, read-out: Brain Parenchyma Concentration, Mean ± SD
[12] = male, C57BL/6, mouse, brain, ip, 0.5 h, individual mouse, read-out: Brain Parenchyma Concentration, Individual
[13] = male, C57BL/6, mouse, brain, ip, 0.5 h, n = 3, read-out: Brain Parenchyma Concentration, Mean ± SD
[14] = male, C57BL/6, mouse, brain, ip, 4 h, n = 3, read-out: Brain Parenchyma Concentration, Mean ± SD
[15] = male, C57BL/6, mouse, ip, 0.083 h, individual mouse, read-out: B:P Ratio, Individual
[16] = male, C57BL/6, mouse, ip, 0.083 h, n = 3, read-out: B:P Ratio, Mean ± SD
[17] = male, C57BL/6, mouse, ip, 0.5 h, individual mouse, read-out: B:P Ratio, Individual
[18] = male, C57BL/6, mouse, ip, 0.5 h, n = 3, read-out: B:P Ratio, Mean ± SD
[19] = male, C57BL/6, mouse, ip, 4 h, individual mouse, read-out: B:P Ratio, Individual
[20] = male, C57BL/6, mouse, ip, 4 h, n = 3, read-out: B:P Ratio, Mean ± SD
[21] = male, C57BL/6, mouse, plasma, ip, 0.083 h, individual mouse, read-out: Plasma Concentration, Individual
[22] = male, C57BL/6, mouse, plasma, ip, 0.083 h, n = 3, read-out: Plasma Concentration, Mean ± SD
[23] = male, C57BL/6, mouse, plasma, ip, 0.5 h, individual mouse, read-out: Plasma Concentration, Individual
[24] = male, C57BL/6, mouse, plasma, ip, 0.5 h, n = 3, read-out: Plasma Concentration, Mean ± SD
[25] = male, C57BL/6, mouse, plasma, ip, 4 h, n = 3, read-out: Plasma Concentration, Mean ± SD

T1 sequence (P28223 whole entry): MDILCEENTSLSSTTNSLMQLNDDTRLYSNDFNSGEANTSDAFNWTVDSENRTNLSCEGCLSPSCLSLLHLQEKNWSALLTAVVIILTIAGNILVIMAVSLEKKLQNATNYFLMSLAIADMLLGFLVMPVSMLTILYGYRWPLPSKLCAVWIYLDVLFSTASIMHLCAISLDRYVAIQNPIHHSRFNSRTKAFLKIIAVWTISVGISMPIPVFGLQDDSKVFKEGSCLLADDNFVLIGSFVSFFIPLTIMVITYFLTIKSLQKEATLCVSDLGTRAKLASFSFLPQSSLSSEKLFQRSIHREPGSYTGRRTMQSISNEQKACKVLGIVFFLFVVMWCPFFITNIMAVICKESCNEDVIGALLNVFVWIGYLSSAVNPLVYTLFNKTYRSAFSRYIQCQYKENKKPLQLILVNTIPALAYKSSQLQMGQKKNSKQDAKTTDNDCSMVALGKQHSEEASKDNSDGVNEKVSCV
T3 sequence (P41595 whole entry): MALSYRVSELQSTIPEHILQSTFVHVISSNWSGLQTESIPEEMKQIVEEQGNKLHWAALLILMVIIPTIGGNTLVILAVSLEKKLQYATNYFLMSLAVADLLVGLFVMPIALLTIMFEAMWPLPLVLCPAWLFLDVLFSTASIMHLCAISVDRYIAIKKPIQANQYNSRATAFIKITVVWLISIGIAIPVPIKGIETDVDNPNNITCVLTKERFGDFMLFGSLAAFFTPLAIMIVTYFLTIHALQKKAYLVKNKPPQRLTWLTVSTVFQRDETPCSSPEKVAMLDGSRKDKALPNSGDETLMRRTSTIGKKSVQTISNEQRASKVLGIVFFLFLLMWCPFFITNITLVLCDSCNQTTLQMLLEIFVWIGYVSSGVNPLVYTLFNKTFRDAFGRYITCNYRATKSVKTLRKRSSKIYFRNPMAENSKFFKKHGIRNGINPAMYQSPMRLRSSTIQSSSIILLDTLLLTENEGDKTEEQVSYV

| SMILES | Emax [1] [%] | Emax [2] [%] | Emax [3] [%] | B:P Ratio, Individual [4, 5] | Plasma Concentration, Individual [4, 5] | concentration at 0.5 h [4, 6] | B:P Ratio, Individual [4, 7] | Plasma Concentration, Individual [4, 7] | concentration at 0.5 h [4, 8] | B:P Ratio, Individual [4, 9] | Plasma Concentration, Individual [4, 9] | concentration at 0.5 h [4, 10] | concentration at 0.083 h [4, 11] [µM] | concentration at 0.5 h [4, 12] [µM] | concentration at 0.5 h [4, 13] [µM] | concentration at 4 h [4, 14] [µM] | Kp at 0.083 h [4, 15] | Kp at 0.083 h [4, 16] | Kp at 0.5 h [4, 17] | Kp at 0.5 h [4, 18] | further results |
| --- | --- | --- | --- | --- | --- | --- | --- | --- | --- | --- | --- | --- | --- | --- | --- | --- | --- | --- | --- | --- | --- |
| CCN(C)CCc1c[nH]c2ccc(OC)c(C)c12 [Example P-37, N-ethyl-2-(5-methoxy-4-methyl-1H-indol-3-yl)-N-methylethan-1-amine] | 80.3 | 53.1 | 30.9 | 6.9 and 8.6 | 2.21 µM and 2.12 µM | 31.6 µM and 15.2 µM and 18.1 µM | 18 and 16 | 1.15 µM and 1.48 µM | 20.6 µM and 24.3 µM | 15 | 0.0091 µM and 0.0104 µM | 0.134 µM and 0.152 µM | 21.6 ± 8.76 | 25.9 | 23.6 ± 2.74 | 0.129 ± 0.0255 | 9.4 | 8.3 ± 1.3 | 20 | 18 ± 2 | concentration at 4 h ([4]; male, C57BL/6, mouse, brain, ip, 4 h, individual mouse, read-out: Brain Parenchyma Concentration, Individual): 0.102 µM; Kp at 4 h [4, 19]: 13; Kp at 4 h [4, 20]: 14 ± 1.2; concentration at 0.083 h [4, 21]: 3.36 µM; concentration at 0.083 h [4, 22]: 2.56 ± 0.0691 µM; concentration at 0.5 h [4, 23]: 1.28 µM; concentration at 0.5 h [4, 24]: 1.3 ± 0.162 µM; concentration at 4 h ([4]; male, C57BL/6, mouse, plasma, ip, 4 h, individual mouse, read-out: Plasma Concentration, Individual): 0.0081 µM; concentration at 4 h [4, 25]: 0.0092 ± 0.0012 µM; Cmax ([4]; plasma, IP 10 mg/kg): 2.56 µM; Tmax ([4]; plasma, IP 10 mg/kg): 4.98 min; AUC(0-inf) ([4]; plasma, IP 10 mg/kg): 1.72 µM·h; half-life ([4]; IP 10 mg/kg, plasma): 30 min |
| CCN(C)CCc1c[nH]c2c(C)cc(OC)cc12 [Example P-51, N-ethyl-2-(5-methoxy-7-methyl-1H-indol-3-yl)-N-methylethan-1-amine] | 69.2 | 57.3 | 0.85 | 6.1 and 4.0 | 5.38 µM and 7.55 µM | 33.0 µM and 30.4 µM | 11 and 9.2 | 4.49 µM and 3.79 µM | 49.3 µM and 35.0 µM | 8.4 and 8.7 | 0.0254 µM and 0.0505 µM and 0.111 µM | 0.230 µM and 0.424 µM and 0.958 µM | 30.7 ± 2.2 | 25.5 | 36.6 ± 12 | 0.538 ± 0.377 | 4.5 | 4.9 ± 1.1 | 7.4 | 9.2 ± 1.8 | concentration at 0.083 h ([4]; male, C57BL/6, mouse, brain, ip, 0.083 h, individual mouse, read-out: Brain Parenchyma Concentration, Individual): 28.6 µM; Kp at 4 h [4, 19]: 9.1; Kp at 4 h [4, 20]: 8.7 ± 0.33; concentration at 0.083 h [4, 21]: 6.37 µM; concentration at 0.083 h [4, 22]: 6.43 ± 1.09 µM; concentration at 0.5 h [4, 23]: 3.46 µM; concentration at 0.5 h [4, 24]: 3.91 ± 0.529 µM; concentration at 4 h [4, 25]: 0.0622 ± 0.0439 µM; Cmax ([4]; plasma, IP 10 mg/kg): 6.43 µM; Tmax ([4]; plasma, IP 10 mg/kg): 4.98 min; AUC(0-inf) ([4]; plasma, IP 10 mg/kg): 5.39 µM·h; half-life ([4]; IP 10 mg/kg, plasma): 36 min |
